We go through one compound from patent publication US8927533B2, “Thio derivatives bearing lactams as potent HDAC inhibitors and their uses as medicaments” (SIGMA-TAU Industrie Farmaceutiche Riunite S.p.A., priority 2011, dated 2015).

One data set has as its system HCT116 colon cancer. Put plainly: Antitumour activity, HCT116 xenograft, oral (Example 49). It is filed as in vivo, mice. The settings on record: 60 mg/10 ml/kg p.o., PEG200/DMSO/Cremophor EL. The source says:
(§1) The experiment of example 48 was repeated with another compound on mice animal model developing HCT116 colon cancer as described above or A2780 ovarian cancer, and administering the drugs solubilised in orally in PEG200/DMSO/Cremophor EL (Sigma): 85/10/5 (volume percentage).

In the next data set the test system is A2780 ovarian cancer. In words: Antitumour activity, A2780 xenograft, oral (Example 49). It is filed as in vivo, mice. To be noted: 110 mg/10 ml/kg p.o., PEG200/DMSO/Cremophor EL.
Source text: as §1

Consider `CC(=O)SCCCCC[C@H](NC(=O)[C@H]1CCC(=O)N1)C(=O)Nc1ccccc1` [Example 21, Thioacetic acid S—{(S)-6-[((R)-5-oxo-pyrrolidine-2-carbonyl)-amino]-6-phenylcarbamoyl-hexyl}ester], for which the BWL % in the data set with HCT116 colon cancer is listed as 1%; in the data set with A2780 ovarian cancer it was 7%. Moreover, the TVI % with HCT116 colon cancer amounted to 62%; in the data set with A2780 ovarian cancer, 89%.
